Experimental data from ChEMBL document CHEMBL1201862, “PubChem BioAssay data set” (2004).
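Each compound was tested at five concentrations against cells in 96-well plates for 48 hours. Here, GI50 denotes the concentration required for 50% inhibition of growth.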 The source made the active and inactive calls. No stated cut-off is given here; in the data, active = GI50 up to about 1.1 µM and inactive = higher.

Experiments:
Test in all cases: growth of human tumour cells (NCI), 48 h
SF-268 = tested on: SF-268
CCRF-CEM = tested on: CCRF-CEM
UACC-257 = tested on: UACC-257
NCI-H23 = tested on: NCI-H23
OVCAR-5 = tested on: OVCAR-5
SN12C = tested on: SN12C
K562 = tested on: K562
ACHN = tested on: ACHN
TK-10 = tested on: TK-10
EKVX = tested on: EKVX
786-0 = tested on: 786-0
OVCAR-8 = tested on: OVCAR-8
RPMI-8226 = tested on: RPMI-8226
SK-MEL-5 = tested on: SK-MEL-5
RXF 393 = tested on: RXF 393
UO-31 = tested on: UO-31
IGROV-1 = tested on: IGROV-1
HOP-62 = tested on: HOP-62
SF-295 = tested on: SF-295
MDA-N = tested on: MDA-N

Measured: GI50

Cc1nnc2sc(Cc3cnc(N)s3)nn12
inactive: SF-268 > 100 µM | CCRF-CEM > 100 µM | UACC-257 > 100 µM | NCI-H23 > 100 µM | OVCAR-5 > 100 µM | SN12C > 100 µM | K562 > 100 µM | ACHN > 100 µM | TK-10 > 100 µM | EKVX > 100 µM | 786-0 > 100 µM | OVCAR-8 > 100 µM | RPMI-8226 > 100 µM | SK-MEL-5 > 100 µM | RXF 393 > 100 µM | UO-31 > 100 µM | IGROV-1 91.4 µM | HOP-62 > 100 µM

O=C(CC(=O)N1N=C(N2c3ccccc3Sc3ccccc32)CC1c1ccccc1)Nc1ccccc1Cl (configuration not stated)
inactive: SF-268 > 100 µM | CCRF-CEM > 100 µM | UACC-257 > 100 µM | NCI-H23 > 100 µM | OVCAR-5 > 100 µM | SN12C > 100 µM | K562 > 100 µM | ACHN > 100 µM | TK-10 > 100 µM | EKVX > 100 µM | 786-0 > 100 µM | OVCAR-8 > 100 µM | SF-295 > 100 µM | RPMI-8226 > 100 µM | SK-MEL-5 > 100 µM | RXF 393 > 100 µM | UO-31 > 100 µM | IGROV-1 > 100 µM | HOP-62 > 100 µM

CNC(=O)CN(CC(N)=O)C(=O)NC
inactive: SF-268 > 100 µM | CCRF-CEM > 100 µM | NCI-H23 > 100 µM | OVCAR-5 > 100 µM | K562 > 100 µM | ACHN > 100 µM | TK-10 > 100 µM | EKVX > 100 µM | 786-0 > 100 µM | OVCAR-8 > 100 µM | SF-295 > 100 µM | RPMI-8226 > 100 µM | SK-MEL-5 > 100 µM | RXF 393 > 100 µM | UO-31 > 100 µM | IGROV-1 > 100 µM | HOP-62 > 100 µM

C=C1C(C(=O)O)C1C(=O)O (configuration not stated)
inactive: SF-268 > 100 µM | CCRF-CEM > 100 µM | UACC-257 > 100 µM | NCI-H23 > 100 µM | OVCAR-5 > 100 µM | SN12C > 100 µM | K562 > 100 µM | ACHN > 100 µM | TK-10 > 100 µM | EKVX > 100 µM | 786-0 > 100 µM | OVCAR-8 > 100 µM | SF-295 > 100 µM | RPMI-8226 > 100 µM | SK-MEL-5 > 100 µM | RXF 393 > 100 µM | UO-31 > 100 µM | IGROV-1 > 100 µM | HOP-62 > 100 µM

CC12CCC(=O)N1c1cncnc1N2 (configuration not stated)
inactive: SF-268 > 10 µM | CCRF-CEM > 10 µM | UACC-257 > 10 µM | NCI-H23 > 10 µM | OVCAR-5 > 10 µM | SN12C > 10 µM | K562 > 10 µM | ACHN > 10 µM | TK-10 > 10 µM | EKVX > 10 µM | 786-0 > 10 µM | OVCAR-8 > 10 µM | SF-295 > 10 µM | MDA-N > 10 µM | UO-31 > 10 µM | IGROV-1 > 10 µM

CCOc1cc(/C=C/C=C/C=C/c2ccc(N(C)C)cc2)[s+]c2ccccc12
inactive: SF-268 13.5 µM | CCRF-CEM 4.88 µM | UACC-257 30.7 µM | NCI-H23 29.9 µM | OVCAR-5 > 100 µM | SN12C 21.2 µM | K562 20.9 µM | ACHN 35.6 µM | TK-10 40.4 µM | EKVX > 100 µM | 786-0 22.5 µM | OVCAR-8 27.6 µM | SF-295 33.8 µM | RPMI-8226 6.78 µM | SK-MEL-5 24 µM | RXF 393 10 µM | UO-31 4.58 µM | IGROV-1 37.5 µM | HOP-62 95.5 µM

O=C(CN(c1ccccc1)c1ccccc1)n1nnc2ccccc21
inactive: SF-268 28.4 µM | CCRF-CEM 35 µM | UACC-257 41.4 µM | NCI-H23 45.1 µM | OVCAR-5 > 100 µM | SN12C 53 µM | K562 37.8 µM | ACHN 36.5 µM | TK-10 > 100 µM | EKVX 36 µM | 786-0 39.2 µM | OVCAR-8 39.3 µM | SF-295 74.8 µM | RPMI-8226 34.8 µM | SK-MEL-5 20.7 µM | RXF 393 26.1 µM | UO-31 14.3 µM | IGROV-1 52.4 µM | HOP-62 > 100 µM

O=C1NCCS(=O)(=O)N2CCC[C@@H]12
inactive: SF-268 > 100 µM | CCRF-CEM > 100 µM | UACC-257 > 100 µM | NCI-H23 > 100 µM | OVCAR-5 > 100 µM | SN12C > 100 µM | K562 > 100 µM | ACHN > 100 µM | TK-10 > 100 µM | EKVX > 100 µM | 786-0 > 100 µM | OVCAR-8 > 100 µM | SF-295 > 100 µM | RPMI-8226 > 100 µM | SK-MEL-5 > 100 µM | RXF 393 > 100 µM | UO-31 > 100 µM | IGROV-1 > 100 µM | HOP-62 > 100 µM

CC(C)CC(NC(=O)OC(C)(C)C)C(=O)Nc1ccc(Nc2nc(F)nc(-c3c4ccccc4c4n3CCS4)n2)cc1 (configuration not stated)
inactive: SF-268 31.4 µM | CCRF-CEM 3.65 µM | UACC-257 23.6 µM | NCI-H23 18.7 µM | OVCAR-5 22.4 µM | SN12C 21.6 µM | K562 26.8 µM | ACHN 24.3 µM | TK-10 28.8 µM | EKVX 19.7 µM | 786-0 19.8 µM | OVCAR-8 22 µM | SF-295 20.9 µM | RPMI-8226 24.4 µM | SK-MEL-5 23.7 µM | RXF 393 34 µM | UO-31 19.7 µM | IGROV-1 24 µM | HOP-62 21.2 µM

COc1ccc2c(c1)CCN1C3=C(CCC3)C(=O)C[C@@H]21
inactive: SF-268 > 100 µM | CCRF-CEM > 100 µM | UACC-257 > 100 µM | NCI-H23 > 100 µM | OVCAR-5 89.9 µM | SN12C > 100 µM | K562 > 100 µM | ACHN > 100 µM | TK-10 44.7 µM | EKVX > 100 µM | 786-0 > 100 µM | OVCAR-8 > 100 µM | SF-295 > 100 µM | RPMI-8226 > 100 µM | SK-MEL-5 > 100 µM | RXF 393 > 100 µM | UO-31 43.6 µM | IGROV-1 > 100 µM | HOP-62 > 100 µM

O=C(Nc1ccc(Cl)cc1)c1cccc([N+](=O)[O-])c1O
inactive: SF-268 4.67 µM | CCRF-CEM 2.06 µM | UACC-257 2.24 µM | NCI-H23 2.43 µM | OVCAR-5 12 µM | SN12C 4.09 µM | K562 2.58 µM | ACHN 2.85 µM | TK-10 3.72 µM | EKVX 2.98 µM | 786-0 3.88 µM | OVCAR-8 4.39 µM | SF-295 3.29 µM | RPMI-8226 1.6 µM | SK-MEL-5 1.75 µM | RXF 393 1.78 µM | UO-31 1.98 µM | IGROV-1 3.03 µM | HOP-62 1.98 µM

COc1cc2c(Cc3cc(OCc4ccccc4)ccc3N)nccc2c(OC)c1OC
inactive: SF-268 > 10 µM | CCRF-CEM > 10 µM | UACC-257 > 10 µM | NCI-H23 > 10 µM | OVCAR-5 > 10 µM | SN12C > 10 µM | K562 > 10 µM | ACHN > 10 µM | TK-10 > 10 µM | EKVX > 10 µM | 786-0 > 10 µM | OVCAR-8 > 10 µM | SF-295 > 10 µM | RPMI-8226 > 10 µM | SK-MEL-5 > 10 µM | RXF 393 > 10 µM | UO-31 > 10 µM | IGROV-1 > 10 µM | HOP-62 > 10 µM

COc1ccc(C(=O)O/N=C2/CCCCC2CN(C)C)cc1 (configuration not stated)
inactive: SF-268 > 10 µM | CCRF-CEM > 100 µM | UACC-257 > 100 µM | NCI-H23 > 100 µM | OVCAR-5 > 100 µM | SN12C > 100 µM | K562 > 100 µM | ACHN > 100 µM | TK-10 > 100 µM | EKVX > 100 µM | 786-0 > 100 µM | OVCAR-8 > 100 µM | SF-295 > 100 µM | RPMI-8226 > 100 µM | SK-MEL-5 > 100 µM | RXF 393 > 100 µM | UO-31 > 100 µM | IGROV-1 > 100 µM | HOP-62 > 100 µM

COC(=O)C12C3C4C5(C(=O)OC)C(C1C35C(=O)N(C(C)C)C(C)C)C42C(=O)N(C(C)C)C(C)C (configuration not stated)
inactive: SF-268 > 50 µM | CCRF-CEM > 50 µM | UACC-257 > 50 µM | NCI-H23 > 50 µM | OVCAR-5 > 50 µM | SN12C > 50 µM | K562 > 47.4 µM | ACHN > 50 µM | TK-10 > 50 µM | EKVX > 50 µM | 786-0 > 50 µM | OVCAR-8 > 50 µM | SF-295 > 50 µM | RPMI-8226 > 36.3 µM | SK-MEL-5 > 50 µM | RXF 393 > 50 µM | UO-31 > 50 µM | IGROV-1 > 50 µM | HOP-62 > 50 µM

CCOC(=O)c1c[nH]c2c(Sc3ccccc3)nccc2c1=O
inactive: SF-268 > 100 µM | CCRF-CEM 22.3 µM | UACC-257 > 100 µM | NCI-H23 32.4 µM | OVCAR-5 > 100 µM | SN12C > 100 µM | ACHN > 100 µM | TK-10 > 100 µM | EKVX > 100 µM | 786-0 > 100 µM | OVCAR-8 > 100 µM | SF-295 > 100 µM | MDA-N > 100 µM | SK-MEL-5 92.7 µM | UO-31 13.2 µM | IGROV-1 21.7 µM | HOP-62 > 100 µM
